Literature values, collected in article PMC9782211 (Microorganisms, 2022).

System: hERG channels
Settings: cited from earlier work
Source text: Inhibition of the potassium current flowing through the cardiac hERG ion channel (Kv11.1) has been correlated to life threatening torsades de pointes cardiac arrhythmia. Effects on hERG channel currents have been observed for a number of drugs, including antihistamines, antipsychotics, and many other drugs from nearly all therapeutic areas and chemical classes, and have become a serious safety concern in drug discovery and development. Inhibition of hERG channel currents have also been reported for antibiotics, in particular for macrolides, raising concerns about the cardiac safety of a ...

Substance: BeKm-1
- block of hERG channels: high affinity
